Experiments:
[1] = system: Blumeria graminis f. sp. hordei; assay: Test Example D: Powdery mildew on barley; conditions: Powdery mildew on barley; class of control value
[2] = system: Magnaporthe grisea; assay: whole plant or invertebrate; type: in vivo; conditions: Blast on rice; class of control value
[3] = system: Botrytis cinerea; assay: Test Example B: Gray mold on tomato; conditions: Gray mold on tomato; class of control value
[4] = system: Colletotrichum orbiculare; assay: Test Example H: Anthracnose on cucumber; conditions: Anthracnose on cucumber (Sagami Hanjiro); 250 ppm spray, 2.5 ml/pot; assessed 6 to 10 days after inoculation
[5] = system: Phytophthora infestans; assay: whole plant or invertebrate; type: in vivo; conditions: Late blight on tomato; class of control value
[6] = system: Plasmopara viticola; assay: Test Example G: Downy mildew on vine; conditions: Downy mildew on vine (Neomuscat); 250 ppm spray, 2.5 ml/pot; assessed 7 to 10 days after inoculation
[7] = system: Puccinia recondita; assay: Test Example E: Brown rust on wheat; type: in vivo; conditions: Brown rust on wheat; class of control value
[8] = system: Alternaia brassicicola; assay: Test Example C: Alternaria sooty spot on cabbage; type: in vivo; conditions: Alternaria sooty spot on cabbage; class of control value
Excerpt: Seeds of a test plant (cabbage variety: Shikidori) were planted and cultivated until the cotyledons extended.
<Control Value> Control value=100{1−(n/3)}

## COCCOc1cc(F)c(-c2c(C(C)(C)C)cc(Cl)c(=O)n2C)c(F)c1 [compound 84]
[1]
  Test D control value class: L (50% or less control value)
[2]
  Test A control value class: L (50% or less control value)
[3]
  Test B control value class: L (50% or less control value)
[4]
  Test H control value class: H (more than 50% control value)
[5]
  Test F control value class: L (50% or less control value)
[6]
  Test G control value class: L (50% or less control value)
[7]
  Test E control value class: L (50% or less control value)
[8]
  Test C control value class: H (more than 50% control value)

## COc1cc(F)c(-c2c(C(C)(C)C)cc(Cl)c(=O)n2C)c(F)c1 [compound 85]
[1]
  Test D control value class: L (50% or less control value)
[2]
  Test A control value class: H (more than 50% control value)
[3]
  Test B control value class: H (more than 50% control value)
[4]
  Test H control value class: H (more than 50% control value)
[5]
  Test F control value class: L (50% or less control value)
[6]
  Test G control value class: L (50% or less control value)
[7]
  Test E control value class: H (more than 50% control value)
[8]
  Test C control value class: H (more than 50% control value)

## CCn1c(-c2c(F)cc(F)cc2F)c(CN(C)C(C)C)cc(Cl)c1=O [compound 86]
[1]
  Test D control value class: L (50% or less control value)
[2]
  Test A control value class: L (50% or less control value)
[3]
  Test B control value class: L (50% or less control value)
[4]
  Test H control value class: L (50% or less control value)
[5]
  Test F control value class: L (50% or less control value)
[6]
  Test G control value class: L (50% or less control value)
[7]
  Test E control value class: L (50% or less control value)
[8]
  Test C control value class: H (more than 50% control value)

## CCn1c(-c2c(F)cc(OC)cc2F)c(C(CC(C)C)OC)cc(Cl)c1=O (stereo not shown) [compound 87]
[1]
  Test D control value class: H (more than 50% control value)
[2]
  Test A control value class: L (50% or less control value)
[3]
  Test B control value class: H (more than 50% control value)
[4]
  Test H control value class: H (more than 50% control value)
[5]
  Test F control value class: L (50% or less control value)
[6]
  Test G control value class: L (50% or less control value)
[7]
  Test E control value class: H (more than 50% control value)
[8]
  Test C control value class: H (more than 50% control value)

## CCn1c(-c2c(F)cc(OC)cc2F)c(CN(C)C(C)C)cc(Cl)c1=O [compound 88]
[1]
  Test D control value class: H (more than 50% control value)
[2]
  Test A control value class: L (50% or less control value)
[3]
  Test B control value class: H (more than 50% control value)
[4]
  Test H control value class: L (50% or less control value)
[5]
  Test F control value class: L (50% or less control value)
[6]
  Test G control value class: L (50% or less control value)
[7]
  Test E control value class: H (more than 50% control value)
[8]
  Test C control value class: H (more than 50% control value)

## CCn1c(-c2c(F)cc(F)cc2F)c(C(O)CC(C)C)cc(Cl)c1=O (stereo not shown) [compound 90]
[1]
  Test D control value class: H (more than 50% control value)
[2]
  Test A control value class: H (more than 50% control value)
[3]
  Test B control value class: H (more than 50% control value)
[4]
  Test H control value class: H (more than 50% control value)
[5]
  Test F control value class: L (50% or less control value)
[6]
  Test G control value class: H (more than 50% control value)
[7]
  Test E control value class: H (more than 50% control value)
[8]
  Test C control value class: H (more than 50% control value)

## CCn1c(-c2c(F)cc(F)cc2F)c(CN(C)C)cc(Cl)c1=O [compound 91]
[1]
  Test D control value class: L (50% or less control value)
[2]
  Test A control value class: L (50% or less control value)
[3]
  Test B control value class: L (50% or less control value)
[4]
  Test H control value class: H (more than 50% control value)
[5]
  Test F control value class: L (50% or less control value)
[6]
  Test G control value class: L (50% or less control value)
[7]
  Test E control value class: H (more than 50% control value)
[8]
  Test C control value class: L (50% or less control value)

## CCn1c(-c2c(F)cc(OC)cc2F)c(CN(C)C)cc(Cl)c1=O [compound 92]
[1]
  Test D control value class: L (50% or less control value)
[2]
  Test A control value class: H (more than 50% control value)
[3]
  Test B control value class: L (50% or less control value)
[4]
  Test H control value class: H (more than 50% control value)
[5]
  Test F control value class: L (50% or less control value)
[6]
  Test G control value class: L (50% or less control value)
[7]
  Test E control value class: H (more than 50% control value)
[8]
  Test C control value class: H (more than 50% control value)

## CCn1c(-c2c(F)cc(OC)cc2F)c(CN(C)OC)cc(Cl)c1=O [compound 94]
[1]
  Test D control value class: H (more than 50% control value)
[2]
  Test A control value class: H (more than 50% control value)
[3]
  Test B control value class: H (more than 50% control value)
[4]
  Test H control value class: H (more than 50% control value)
[5]
  Test F control value class: H (more than 50% control value)
[6]
  Test G control value class: H (more than 50% control value)
[7]
  Test E control value class: H (more than 50% control value)
[8]
  Test C control value class: H (more than 50% control value)

## CCn1c(-c2c(F)cccc2OC)c(CC(C)C)ccc1=O [compound 95]
[1]
  Test D control value class: H (more than 50% control value)
[2]
  Test A control value class: L (50% or less control value)
[3]
  Test B control value class: H (more than 50% control value)
[4]
  Test H control value class: L (50% or less control value)
[5]
  Test F control value class: H (more than 50% control value)
[6]
  Test G control value class: L (50% or less control value)
[7]
  Test E control value class: H (more than 50% control value)
[8]
  Test C control value class: L (50% or less control value)

## CCn1c(-c2c(F)cccc2OC)c(CC(C)C)cc(Br)c1=O [compound 96]
[1]
  Test D control value class: H (more than 50% control value)
[2]
  Test A control value class: L (50% or less control value)
[3]
  Test B control value class: H (more than 50% control value)
[4]
  Test H control value class: H (more than 50% control value)
[5]
  Test F control value class: L (50% or less control value)
[6]
  Test G control value class: L (50% or less control value)
[7]
  Test E control value class: H (more than 50% control value)
[8]
  Test C control value class: H (more than 50% control value)

## CCn1c(-c2c(F)cccc2OC)c(CC(C)C)cc(Cl)c1=O [compound 97]
[1]
  Test D control value class: H (more than 50% control value)
[2]
  Test A control value class: H (more than 50% control value)
[3]
  Test B control value class: H (more than 50% control value)
[4]
  Test H control value class: H (more than 50% control value)
[5]
  Test F control value class: L (50% or less control value)
[6]
  Test G control value class: L (50% or less control value)
[7]
  Test E control value class: H (more than 50% control value)
[8]
  Test C control value class: H (more than 50% control value)

## CCn1c(-c2ccc(F)cc2Cl)c(CC(C)C)cc(Br)c1=O [compound 100]
[1]
  Test D control value class: H (more than 50% control value)
[2]
  Test A control value class: H (more than 50% control value)
[3]
  Test B control value class: H (more than 50% control value)
[4]
  Test H control value class: H (more than 50% control value)
[5]
  Test F control value class: L (50% or less control value)
[6]
  Test G control value class: H (more than 50% control value)
[7]
  Test E control value class: H (more than 50% control value)
[8]
  Test C control value class: H (more than 50% control value)

## CCn1c(-c2c(O)cccc2F)c(CC(C)C)cc(Cl)c1=O [compound 101]
[1]
  Test D control value class: L (50% or less control value)
[2]
  Test A control value class: L (50% or less control value)
[3]
  Test B control value class: H (more than 50% control value)
[4]
  Test H control value class: L (50% or less control value)
[5]
  Test F control value class: H (more than 50% control value)
[6]
  Test G control value class: H (more than 50% control value)
[7]
  Test E control value class: H (more than 50% control value)
[8]
  Test C control value class: L (50% or less control value)

— patent publication US11147272B2, “Pyridone compounds and agricultural and horticultural fungicides comprising the same as active ingredients” (MITSUI CHEMICALS AGRO, INC., priority 2017, dated 2021)
